Source: patent US6372756B1, “Epimorphian compound and its use” (AvMax, Inc., priority 1998, dated 2002)
Where two headings read alike, the source gives them in different places.

Tests used:
[1] = Water solubility inferred from retention on lipophilic reversed-phase HPLC column; type: physicochemical; settings: evidenced by shorter retention time on lipophilic reversed-phase HPLC column
From the text: This characteristic of the novel compound results in a different oral bioavailability, pharmacokinetic profile, and organ distribution pattern than the known compound and also leads to ease in creating formulations for therapeutic use.
An HPLC system was also used for analysis of the sinomenine metabolism end products. For analytical HPLC, sinomenine and its metabolites were separated on a 250×4 mm LiChroCart column filled with endcapped Supersphere RP-18 material of 5 μm particle size and 100 Å pore width (Merck, Darmstadt, Germany).
The metabolite was prepared as described in Example 1. The samples were centrifuged (2000 g, 2 minutes) and 100 μl of the supernatant was injected into the analytical HPLC system. A control sample was prepared by the method described in Example 1 except that sinomenine and liver microsomes were incubated with an equal amount of phosphate buffer instead of with the NADPH generating solution. An HPLC run of the control sample was also made. The flow rate for the HPLC was set at 1 ml/min and the UV detection wavelength was 234 nm. The analytical column was kept at room temperature.
Sinomenine and its metabolites were isocratically eluted from the column with a mobile phase of 9.0/9.0/12.0/70.0 v/v/v/v methanol/acetonitrile/0.2 M sodium acetate/water, pH 5.5. The various fractions were quantified based on an external sinomenine calibration curve. […]

[2] = test system: interleukin-2 (IL-2) synthesis in OKT3-stimulated PBMCs; assay: OKT3-stimulated human peripheral blood mononuclear cell assay, IL-2 secretion by ELISA; type: cell-based; settings: for IC50: OKT3 (1 μg/l) for 14 hours, curve fit, three independent experiments, read-out: IC50 of inhibition of IL-2 synthesis
Method: In an OKT3-stimulated human peripheral blood mononuclear cell assay, the relative biological activities of sinomenine and N-demethyl-sinomenine were tested.
The OKT3-stimulated human peripheral blood mononuclear cell assay was performed as described in Liu, L. et al., Inhibition of Lymphocyte Proliferation by the Anti-Arthritic Drug Sinomenine, Int. J. Immunopharmac., 16(8):685-691, (1994). Human Peripheral Blood Mononuclear Cells (PBMCS) were isolated from heparinized blood drawn from healthy adults. After separation from other blood components by density gradient centrifugation on Ficoll-hypaque (Biochrom, Berlin, Germany), the PBMCs were suspended in RPMI 1640 medium/10%FCS (RPMI 1640 medium with L-glutamine and nonessential amino acids: Gibco (Eggenstein, Germany); fetal calf serum (FCS): PAA Biologics (Marburg, Germany)).
The PBMCs (10^5 cells in a total volume of 150 μl per well) were activated by incubation with the monoclonal anti-T-cell receptor/CD3 complex antibody OKT3 (1 μg/l) for 14 hours. During this incubation, either sinomenine or N-demethyl-sinomenine was present in each of the main experimental wells at concentrations ranging from 10^−8 to 10^−3 M, as indicated on the x-axes of the graphs of FIGS. 10A and 10B. Control wells containing neither sinomenine nor its major metabolite were also prepared. The concentration of secreted IL-2 in the supernatants of activated PBMCs was determined using a commercial ELISA kit (Immunotech, Hamburg, Germany) following the manufacturer's instructions. In each of FIGS. 10A-B, the mean and standard error of three independent experiments are shown.
FIG. 10A presents the results for inhibition of IL-2 secretion by sinomenine. The concentration of IL-2 production, as a percentage of the control (100% equalled 1135 pg/ml, in this instance), was plotted against the molar concentration of sinomenine for each data point. The curves depicted were generated by a curve fit computer program (Microcal Origin Version 3.5). […]

human liver microsomes = assay: Incubation of sinomenine with human liver microsomes and NADPH generating system, HPLC/UV; type: in vitro ADME
Method: The livers of male Sprague Dawley rats, treated with dexamethasone for two days, and human liver specimens provided the sources for the starting material. Liver microsomes were prepared using standard centrifugation techniques as described by Guengerich (Guengerich, F. P., et al., Microsomal Enzymes Involved in Toxicology-Analysis and Separation, In: Principles and Methods in Toxicology (Ed. Hayes A W), pp. 609-637, Raven Press, New York, (1982)) with some modifications. Specifically, phosphate buffer was used instead of TRIS buffer and microsomes were stored at −80° C. The protein concentration was determined using a bicinchoninic acid assay (Redingbaugh, M. G., et al., Adaptation of the Bicinchoninic Acit Protein Assay for Use With Microtiter Plates and Sucrose Gradient Fractions, Anal. Biochem., 153:267-271, (1986)) and adjusted with 0.1 M potassium phosphate buffer, pH 7.4, to 3 g/l. […]
The presence of sinomenine and N-demethyl-sinomenine over time in the presence of microsomes and an NADPH generating solution were determined by HPLC and ultraviolet (UV) analysis. […]
For the HPLC analysis, a 250×4 mm analytical column was prepared with endcapped C18 material of 5 μm particle size. […] Sinomenine and its metabolites were detected with a UV wavelength of 234 nm. […]

[3] = In vivo sinomenine metabolism, rat plasma; parameters: species or system female Lewis rats; settings: sinomenine 150 mg/kg intraperitoneally, blood after 30 minutes
Method: (§1) More particularly, to study its metabolism in vivo, sinomenine was injected intraperitoneally into female Lewis rats at a concentration of 150 mg/kg body weight. Blood was taken after 30 minutes from the rat tail vein and plasma samples were prepared from the blood samples via standard techniques. In a parallel study, MRL-1 pr mice were injected intraperitoneally with either sinomenine at a concentration of 100 mg/kg body weight or physiological saline. Mouse urine was collected over a period of 24 hours.
(§2) The collected samples of rat blood and mouse urine from each of these studies were split so that testing could be performed immediately and after storage at −20° C. for one week. HPLC and GC/MS analysis was performed and there were no statistically significant differences in the results obtained from the immediately tested and the frozen samples.
(§3) A metabolite peak with the same relative retention time as the major metabolite isolated after incubation of sinomenine and NADPH generating solution with rat microsomes or human liver microsomes was obtained upon analysis of the rat blood and mouse urine samples. […] FIGS. 9A-B show HPLC chromatograms run on urine samples obtained from mice treated with saline (FIG. 9A) or with sinomenine (FIG. 9B). […]

[4] = In vivo sinomenine metabolism, mouse urine; parameters: species or system MRL-1 pr mice; settings: sinomenine 100 mg/kg intraperitoneally, urine collected over 24 hours
Method: as §1, §2, §3

[5] = in vivo; cited from earlier work
Lymphocyte proliferation = settings: in vitro; cited from earlier work

COC1=C[C@H]2[C@H]3Cc4ccc(OC)c(O)c4[C@@]2(CCN3)CC1=O [N-demethyl-sinomenine]
water solubility relative to sinomenine [1]: greater water solubility | IC50 [2]: 20 µM | biological activity (IL-2 inhibition IC50) relative to sinomenine ([2]; same assay, relative to sinomenine): approximately five | share of all sinomenine metabolic products (human liver microsomes; believed to represent): approximately 90% | detection as metabolite in plasma [3]: detected as a metabolite | detection as metabolite in urine [4]: detected as a metabolite

COC1=C[C@@H]2[C@@H]3Cc4ccc(OC)c(O)c4[C@]2(CCN3C)CC1=O [sinomenine, reference compound]
side effects [5]: minor side effects such as mild pain, cough, and diarrhea | IC50 ([2]; Homo sapiens, PBMC): 100 µM | effect on lymphocyte proliferation (Lymphocyte proliferation): inhibited by sinomenine in a reversible manner without exhibiting direct cytotoxic effects | amounts of sinomenine and its major metabolite (human liver microsomes; 120 minutes after the start of the reaction, human liver microsomes): approximately equal amounts
